From patent US9309242B2, “Substituted pyrido[2,3-b]pyrazines as FGFR kinase inhibitors” (priority 2011, dated 2016)

How the values were obtained:
FGFR2 (h) = FGFR2 (h) (Homo sapiens, UniProt P21802); experiment: FGFR2 (enzymatic assay), TR-FRET; format: biochemical; settings: enzymatic assay; read-out: FGFR 2 pIC50 (converted)
Summary of the method: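 Kinase reaction in 50 mM HEPES pH 7.5 with 6 mM MnCl2, 1 mM DTT, 0.1 mM Na3VO4 and 0.01% Triton-X-100 contained FGFR2 (h) at 150 ng/ml. Biotinylated Flt3 peptide (500 nM) served as substrate with 0.4 μM ATP, compound added in 1% DMSO final.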

[1] = molecular target: Ba/F3-FGFR4-transfected cells (Homo sapiens, UniProt P22455); experiment: Ba/F3-FGFR4 cellular proliferation assay, Alamar Blue; format: cell-based
Summary of the method: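 Proliferation of Ba/F3-FGFR4-transfected cells is gauged by Alamar Blue (resazurin) fluorescence after 24 hours of compound treatment in phenol red free RPMI-1640 with 10% FBS.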

[2] = molecular target: T1, Ba/F3-FGFR3-transfected cells (Homo sapiens, UniProt P22607); experiment: Ba/F3-FGFR3 (minus IL3) cellular proliferation assay, Alamar Blue; format: cell-based
T1 construct: BAF3-FGFR3 (MIN IL3) pIC50; other: minus IL3
Summary of the method: (§1)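 Read-out: resazurin-based Alamar Blue fluorescence (ex 540 nm, em 590 nm) after a 4 h dye incubation. FGFR3-transfected Ba/F3 cells, 20000 per well, are exposed to compound for 24 h at 37° C in RPMI-1640/10% FBS. Plus-IL3 counterscreen adds 10 ng/ml murine IL3.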

FGFR4 (h) = FGFR4 (h) (Homo sapiens, UniProt P22455); experiment: FGFR4 (enzymatic assay), TR-FRET; format: biochemical; settings: FGFR 4 pIC50, enzymatic assay
FGFR4 (h), sequence (P22455 22-802): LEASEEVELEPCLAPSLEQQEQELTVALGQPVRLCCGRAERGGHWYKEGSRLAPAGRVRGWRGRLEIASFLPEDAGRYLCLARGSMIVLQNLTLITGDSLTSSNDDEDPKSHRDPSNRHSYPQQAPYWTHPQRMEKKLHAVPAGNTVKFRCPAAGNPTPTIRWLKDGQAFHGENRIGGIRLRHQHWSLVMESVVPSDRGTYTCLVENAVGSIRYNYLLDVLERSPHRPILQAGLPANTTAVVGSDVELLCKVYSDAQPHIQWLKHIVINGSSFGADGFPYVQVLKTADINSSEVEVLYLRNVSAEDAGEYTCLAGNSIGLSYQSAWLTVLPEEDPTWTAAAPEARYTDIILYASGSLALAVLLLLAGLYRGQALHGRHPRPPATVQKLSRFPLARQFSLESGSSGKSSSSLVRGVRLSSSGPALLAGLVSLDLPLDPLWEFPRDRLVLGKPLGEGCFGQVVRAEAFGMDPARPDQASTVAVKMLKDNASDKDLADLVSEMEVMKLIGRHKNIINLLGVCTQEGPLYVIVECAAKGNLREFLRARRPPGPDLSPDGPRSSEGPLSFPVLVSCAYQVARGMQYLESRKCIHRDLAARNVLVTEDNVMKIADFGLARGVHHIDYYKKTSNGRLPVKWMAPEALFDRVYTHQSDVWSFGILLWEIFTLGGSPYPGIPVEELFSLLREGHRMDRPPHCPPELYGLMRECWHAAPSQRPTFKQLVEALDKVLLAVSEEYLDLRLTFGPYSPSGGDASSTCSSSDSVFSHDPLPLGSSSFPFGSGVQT

FGFR3 (h) = FGFR3 (h) (Homo sapiens, UniProt P22607); experiment: FGFR3 (enzymatic assay), TR-FRET; format: biochemical; settings: read-out: FGFR 3 pIC50 (converted)
FGFR3 (h), sequence (P22607 23-806): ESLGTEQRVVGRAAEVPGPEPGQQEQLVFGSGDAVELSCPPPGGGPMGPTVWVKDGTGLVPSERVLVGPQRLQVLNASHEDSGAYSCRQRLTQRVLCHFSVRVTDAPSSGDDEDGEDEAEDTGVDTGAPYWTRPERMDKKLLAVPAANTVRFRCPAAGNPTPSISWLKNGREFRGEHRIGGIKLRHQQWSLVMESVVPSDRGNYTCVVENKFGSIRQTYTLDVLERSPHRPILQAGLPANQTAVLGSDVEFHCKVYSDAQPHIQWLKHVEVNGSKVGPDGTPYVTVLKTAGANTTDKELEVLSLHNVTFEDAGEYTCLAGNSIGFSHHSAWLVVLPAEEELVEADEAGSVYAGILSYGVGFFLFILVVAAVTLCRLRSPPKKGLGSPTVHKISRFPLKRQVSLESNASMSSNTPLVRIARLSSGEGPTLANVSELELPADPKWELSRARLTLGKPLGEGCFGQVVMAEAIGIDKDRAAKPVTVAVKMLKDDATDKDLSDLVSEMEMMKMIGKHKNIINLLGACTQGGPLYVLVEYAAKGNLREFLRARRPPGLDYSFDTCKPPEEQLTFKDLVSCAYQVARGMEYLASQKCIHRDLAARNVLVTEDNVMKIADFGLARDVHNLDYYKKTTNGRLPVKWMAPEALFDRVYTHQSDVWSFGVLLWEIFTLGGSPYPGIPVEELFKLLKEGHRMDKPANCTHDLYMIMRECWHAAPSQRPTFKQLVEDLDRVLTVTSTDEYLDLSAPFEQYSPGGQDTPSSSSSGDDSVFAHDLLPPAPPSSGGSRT
Excerpt: Time-Resolved Fluorescence Resonance Energy Transfer (TR-FRET) signal (ex340 nm.

FGFR1 (h) = FGFR1 (h) (Homo sapiens, UniProt P11362); experiment: FGFR1 (enzymatic assay), TR-FRET; format: biochemical; settings: read-out: FGFR 1 pIC50 (converted)
KDR (h) = KDR (h) (Homo sapiens, UniProt P35968); experiment: KDR (VEGFR2) (enzymatic assay), TR-FRET; format: biochemical; settings: read-out: VEGFR 2 (KDR) pIC50 (converted)
KDR (h), sequence (P35968 20-1356): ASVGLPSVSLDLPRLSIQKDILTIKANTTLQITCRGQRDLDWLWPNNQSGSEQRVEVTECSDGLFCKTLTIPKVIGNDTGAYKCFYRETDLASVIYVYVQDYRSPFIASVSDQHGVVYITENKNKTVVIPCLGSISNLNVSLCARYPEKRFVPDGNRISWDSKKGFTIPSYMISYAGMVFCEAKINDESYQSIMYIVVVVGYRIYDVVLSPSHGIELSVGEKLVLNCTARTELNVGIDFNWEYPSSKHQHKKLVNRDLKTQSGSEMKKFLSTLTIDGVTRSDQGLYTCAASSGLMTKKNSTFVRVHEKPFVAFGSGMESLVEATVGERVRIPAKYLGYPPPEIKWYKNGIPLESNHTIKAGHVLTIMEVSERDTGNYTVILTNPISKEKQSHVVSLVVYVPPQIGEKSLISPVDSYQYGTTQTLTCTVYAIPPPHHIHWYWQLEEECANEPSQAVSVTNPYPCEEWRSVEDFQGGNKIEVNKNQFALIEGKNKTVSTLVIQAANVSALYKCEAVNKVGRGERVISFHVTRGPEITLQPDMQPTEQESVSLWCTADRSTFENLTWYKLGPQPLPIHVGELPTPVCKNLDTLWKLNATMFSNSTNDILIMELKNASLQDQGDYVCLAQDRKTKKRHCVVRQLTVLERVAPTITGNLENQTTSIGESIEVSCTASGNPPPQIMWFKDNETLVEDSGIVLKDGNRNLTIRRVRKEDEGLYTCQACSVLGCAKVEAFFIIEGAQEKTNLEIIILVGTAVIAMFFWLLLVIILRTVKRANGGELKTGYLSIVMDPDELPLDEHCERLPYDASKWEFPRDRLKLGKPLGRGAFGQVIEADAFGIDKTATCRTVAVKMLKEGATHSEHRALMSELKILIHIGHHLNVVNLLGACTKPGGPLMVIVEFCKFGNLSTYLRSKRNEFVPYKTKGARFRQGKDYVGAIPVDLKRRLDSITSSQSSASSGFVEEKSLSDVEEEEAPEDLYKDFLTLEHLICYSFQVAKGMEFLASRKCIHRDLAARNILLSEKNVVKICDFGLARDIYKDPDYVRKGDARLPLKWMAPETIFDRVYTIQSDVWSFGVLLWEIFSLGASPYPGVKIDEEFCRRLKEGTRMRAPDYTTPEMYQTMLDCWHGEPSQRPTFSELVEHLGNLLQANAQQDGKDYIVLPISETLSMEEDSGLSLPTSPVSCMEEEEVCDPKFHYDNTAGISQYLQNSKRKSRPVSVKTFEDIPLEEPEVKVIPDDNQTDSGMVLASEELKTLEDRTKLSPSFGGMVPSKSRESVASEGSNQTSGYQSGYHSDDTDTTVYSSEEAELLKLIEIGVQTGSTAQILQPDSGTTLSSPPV
Summary of the method: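 First, kinase (150 ng/ml), Btn-Flt3 (500 nM), ATP (3 μM) and compound (1% DMSO) react 120 min at RT in pH 7.5 HEPES/6 mM MnCl2. Next, EDTA with Eu-anti-P-Tyr and SA-XL-665 stops it for 60 min. Finally, TR-FRET is read as RFU.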

[3] = test system: Ba/F3-FGFR3-transfected cells; experiment: Ba/F3-FGFR3 (plus IL3) cellular proliferation assay, counterscreen with 10 ng/ml murine IL3; format: cell-based; settings: plus IL3 (10 ng/ml murine IL3, counterscreen); read-out: BAF3-FGFR3 (PLUS IL3) pIC50 (converted)
Summary of the method: as §1

[4] = molecular target: T2, Ba/F3-FGFR1-transfected cells (Homo sapiens, UniProt P11362); experiment: Ba/F3-FGFR1 (minus IL3) cellular proliferation assay, Alamar Blue; format: cell-based
T2 construct: BAF3-FGFR1 (MIN IL3) pIC50; other: minus IL3
T2 sequence (P11362 whole entry, change not shown): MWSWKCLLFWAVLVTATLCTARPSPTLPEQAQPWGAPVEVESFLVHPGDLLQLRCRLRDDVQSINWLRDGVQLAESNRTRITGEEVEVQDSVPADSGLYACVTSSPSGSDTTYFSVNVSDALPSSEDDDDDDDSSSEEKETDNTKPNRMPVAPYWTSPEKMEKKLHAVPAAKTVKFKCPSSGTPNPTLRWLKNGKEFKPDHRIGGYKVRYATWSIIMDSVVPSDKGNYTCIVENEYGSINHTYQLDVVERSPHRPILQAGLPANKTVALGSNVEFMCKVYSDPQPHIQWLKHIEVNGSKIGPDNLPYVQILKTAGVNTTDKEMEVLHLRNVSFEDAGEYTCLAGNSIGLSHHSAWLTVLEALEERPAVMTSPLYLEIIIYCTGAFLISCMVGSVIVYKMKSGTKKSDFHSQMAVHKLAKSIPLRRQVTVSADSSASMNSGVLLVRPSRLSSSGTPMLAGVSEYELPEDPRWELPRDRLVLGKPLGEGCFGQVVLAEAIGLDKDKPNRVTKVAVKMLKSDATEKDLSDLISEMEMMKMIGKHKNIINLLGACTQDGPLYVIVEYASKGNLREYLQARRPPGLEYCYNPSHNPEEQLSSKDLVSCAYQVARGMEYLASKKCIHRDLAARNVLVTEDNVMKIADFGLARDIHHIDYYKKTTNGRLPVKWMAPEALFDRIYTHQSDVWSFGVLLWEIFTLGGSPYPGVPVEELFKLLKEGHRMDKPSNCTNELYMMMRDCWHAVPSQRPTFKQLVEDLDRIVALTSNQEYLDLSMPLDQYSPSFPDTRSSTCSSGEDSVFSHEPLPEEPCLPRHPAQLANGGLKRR
Summary of the method: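 Read-out: resazurin reduction, fluorescence ex 540 nm/em 590 nm after 4 h Alamar Blue at 37 °C. Before that, FGFR1-transfected Ba/F3 cells (20000/well) sat with compound for 24 h in RPMI-1640/10% FBS/2 mM L-Gln.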

[5] = test system: Ba/F3-FGFR1-transfected cells; experiment: Ba/F3-FGFR1 (plus IL3) cellular proliferation assay, counterscreen with 10 ng/ml murine IL3; format: cell-based; settings: plus IL3 (10 ng/ml murine IL3, counterscreen); read-out: BAF3-FGFR1 (PLUS IL3) pIC50 (converted)
Summary of the method: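 Ba/F3-FGFR1 cells (20000/well) in RPMI-1640 with 10% FBS exposed to compound for 24 h at 37° C., 5% CO2, then Alamar Blue (resazurin) added for 4 h; fluorescence read at ex 540/em 590 nm. Counterscreen run identically with 10 ng/ml murine IL3.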

FGFR2 (h), sequence (P21802 22-821): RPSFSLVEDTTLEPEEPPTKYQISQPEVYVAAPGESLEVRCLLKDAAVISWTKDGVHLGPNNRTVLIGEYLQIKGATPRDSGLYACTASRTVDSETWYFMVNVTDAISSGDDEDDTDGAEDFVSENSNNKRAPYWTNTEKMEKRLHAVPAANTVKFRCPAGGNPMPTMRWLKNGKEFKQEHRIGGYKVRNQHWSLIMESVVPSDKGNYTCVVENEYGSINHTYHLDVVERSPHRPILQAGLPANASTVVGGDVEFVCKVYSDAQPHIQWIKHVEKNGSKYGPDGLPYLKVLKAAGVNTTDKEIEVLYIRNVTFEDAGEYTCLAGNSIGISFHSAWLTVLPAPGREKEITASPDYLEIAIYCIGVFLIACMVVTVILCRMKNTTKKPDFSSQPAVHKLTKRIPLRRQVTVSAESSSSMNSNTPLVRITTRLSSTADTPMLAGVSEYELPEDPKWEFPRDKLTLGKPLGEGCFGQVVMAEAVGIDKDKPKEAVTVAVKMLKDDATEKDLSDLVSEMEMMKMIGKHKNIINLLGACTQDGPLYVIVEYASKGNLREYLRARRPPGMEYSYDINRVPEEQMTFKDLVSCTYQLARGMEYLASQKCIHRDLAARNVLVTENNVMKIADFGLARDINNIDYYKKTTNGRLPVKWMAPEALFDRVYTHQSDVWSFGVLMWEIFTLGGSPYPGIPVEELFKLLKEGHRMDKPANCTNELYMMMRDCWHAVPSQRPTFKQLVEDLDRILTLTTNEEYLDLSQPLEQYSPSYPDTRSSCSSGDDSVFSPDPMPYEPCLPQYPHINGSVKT

| Structure (SMILES) | IC50 (FGFR2 (h)) [nM] | BAF3-FGFR4 pIC50 [1] | BAF3-FGFR3 (MIN IL3) pIC50 [2] | IC50 (FGFR4 (h)) [nM] | IC50 (FGFR3 (h)) [nM] | IC50 (FGFR1 (h)) [nM] | IC50 (KDR (h)) [nM] | IC50 [3] [nM] | BAF3-FGFR1 (MIN IL3) pIC50 [4] | IC50 [5] [nM] |
| --- | --- | --- | --- | --- | --- | --- | --- | --- | --- | --- |
| COc1cc(/N=c2\ccc3ncc(-c4cnn(C)c4)nc3n2CCN2CCOCC2)c(F)c(OC)c1 [Compound 148] | 1.91 | 7.21 | 7.21 | 1.62 | 1.26 | 1.7 | 5.01 | > 10000 | 7.58 | > 10000 |
| COc1cc(OC)c(F)c(N(CCN2CCOCC2)c2ccc3ncc(-c4cnn(C)c4)nc3n2)c1 [Compound 149] | 3.09 | 7.12 | ~7.66 | 5.13 | 2.63 | 2.45 | 15.5 | > 10000 | 7.45 | > 10000 |
| COc1cc(OC)cc(N(CCN2CCCC2=O)c2ccc3ncc(-c4cnn(C)c4)nc3n2)c1 [Compound 151] | 15.1 | 5.49 | 5.72 | 91.2 | 10.7 | 38.9 | 126 | > 10000 | 5.56 | > 10000 |
| COc1cc(OC)cc(N(Cc2ncc[nH]2)c2ccc3ncc(-c4ccccc4)nc3n2)c1 [Compound 152] | 1.48 | 7.46 | 8.08 | 1.41 | 1.15 | 1.07 | 15.1 | > 10000 | 7.96 | > 10000 |
| COc1cc(OC)c(F)c(/N=c2\ccc3ncc(-c4cnn(C)c4)nc3n2CC2CCOC2)c1F (stereo not shown) [Compound 154] | 1.05 | ~7.6 | 7.59 | 0.776 | 0.676 | 0.661 | 1.62 | > 10000 | 7.71 | > 10000 |
| COc1cc(/N=c2\ccc3ncc(-c4cnn(C)c4)nc3n2Cc2cn[nH]c2)c(F)c(OC)c1 [Compound 155] | 1.2 | 8.09 | 8.07 | 0.324 | 0.407 | 0.55 | 2.45 | > 10000 | 8.13 | > 10000 |
| COc1cc(/N=c2\ccc3ncc(-c4cnn(C)c4)nc3n2CCN2CCCC2=O)c(F)c(OC)c1 [Compound 156] | 2.69 | 6.68 | 7.27 | 6.92 | 1.91 | 2.95 | 29.5 | > 10000 | 7.17 | > 10000 |
| COc1cc(OC)c(F)c(N(CCN2CCCC2=O)c2ccc3ncc(-c4cnn(C)c4)nc3n2)c1 [Compound 157] | 6.31 | 6.08 | ~6.66 | 26.3 | 5.62 | 10.5 | 46.8 | > 10000 | 6.17 | > 10000 |
| COc1cc(/N=c2\ccc3ncc(-c4cnn(C)c4)nc3n2CC2CCC(=O)N2C)c(F)c(OC)c1 (stereo not shown) [Compound 158] | 1.86 | 6.78 | 7.20 | 2.51 | 1.29 | 1.74 | 6.61 | > 10000 | 7.18 | > 10000 |
| COc1cc(OC)c(F)c(N(CC2CCC(=O)N2C)c2ccc3ncc(-c4cnn(C)c4)nc3n2)c1 (stereo not shown) [Compound 159] | 6.61 | 6.20 | 6.30 | 20.4 | 5.89 | 8.51 | 83.2 | > 10000 | 6.65 | > 10000 |
| COc1cc(OC)c(F)c(/N=c2\ccc3ncc(-c4cnn(C)c4)nc3n2CCN(C2COC2)C2COC2)c1F [Compound 164] | 1.82 | ~7.66 | 7.89 | 0.977 | 0.933 | 1.02 | 3.39 | > 10000 | 8.01 | > 10000 |
| COc1cc(/N=c2\ccc3ncc(-c4cnn(C)c4)nc3n2CC2CCCOC2)cc(OC)c1 (stereo not shown) [Compound 165] | 2.4 | 7.13 | 7.32 | 2.04 | 1.12 | 1.15 | 6.31 | > 10000 | 7.38 | > 10000 |
| COc1cc(OC)cc(N(CC2CCCOC2)c2ccc3ncc(-c4cnn(C)c4)nc3n2)c1 (stereo not shown) [Compound 166] | 3.16 | 6.24 | 6.65 | 9.33 | 2.63 | 5.62 | 55 | > 10000 | 6.72 | > 10000 |
| COc1cc(/N=c2\ccc3ncc(-c4cnn(C)c4)nc3n2CCN)c(F)c(OC)c1 [Compound 167] | 2.19 | 6.31 | 6.72 | 4.17 | 2.09 | 1.86 | 16.2 | > 10000 | 6.74 | > 10000 |
| COc1cc(OC)c(F)c(N(CCN)c2ccc3ncc(-c4cnn(C)c4)nc3n2)c1 [Compound 168] | 2.04 | 6.72 | 6.76 | 4.57 | 3.16 | 1.7 | 15.8 | > 10000 | 7.48 | > 10000 |
| COc1cc(OC)c(F)c(N(CC#N)c2ccc3ncc(-c4cnn(C)c4)nc3n2)c1F [Compound 173] | 1.1 | 7.61 | ~8.04 | 0.724 | 0.437 | ~0.977 | 8.91 | > 10000 | 8.00 | > 10000 |
| COc1cc(OC)cc(N(Cc2nc(OC)cc(OC)n2)c2ccc3ncc(-c4cnn(C)c4)nc3n2)c1 [Compound 174] | 6.92 | 5.45 | 5.57 | 77.6 | 36.3 | ~39.8 | 89.1 | > 10000 | 5.68 | > 10000 |
| Cn1cc(-c2cnc3ccc(N(Cc4ncc[nH]4)c4c(F)c(F)cc(F)c4F)nc3n2)cn1 [Compound 175] | 1.91 | 6.75 | 6.86 | 4.79 | 2 | 4.07 | 219 | > 10000 | 6.87 | > 10000 |
| COc1cc(OC)c(F)c(N(Cc2ncco2)c2ccc3ncc(-c4cnn(C)c4)nc3n2)c1 [Compound 177] | 1.62 | 6.79 | 7.10 | 2.45 | 1.07 | 1.78 | 10.5 | > 10000 | 7.22 | > 10000 |
